Experimental data as given in patent US10300071B2, “Compositions and methods for inhibition of mycobacteria” (priority 2014, dated 2019).
≈ marks a conversion by molar mass, not a printed value. Read-outs that look alike come from different tables or passages of the source.

How the values were obtained:
Mtb AccD6 = Mtb AccD6 (Mycobacterium tuberculosis, UniProt P9WQH5); experiment: biochemical; format: biochemical; settings: for IC50: 300 μM malonyl-CoA, inhibitor 10 μM to 2000 μM; for inhibition at 20 µM: read-out: inhibition at 20 uM
Chain of Mtb AccD6 (P9WQH5 whole entry, looked up): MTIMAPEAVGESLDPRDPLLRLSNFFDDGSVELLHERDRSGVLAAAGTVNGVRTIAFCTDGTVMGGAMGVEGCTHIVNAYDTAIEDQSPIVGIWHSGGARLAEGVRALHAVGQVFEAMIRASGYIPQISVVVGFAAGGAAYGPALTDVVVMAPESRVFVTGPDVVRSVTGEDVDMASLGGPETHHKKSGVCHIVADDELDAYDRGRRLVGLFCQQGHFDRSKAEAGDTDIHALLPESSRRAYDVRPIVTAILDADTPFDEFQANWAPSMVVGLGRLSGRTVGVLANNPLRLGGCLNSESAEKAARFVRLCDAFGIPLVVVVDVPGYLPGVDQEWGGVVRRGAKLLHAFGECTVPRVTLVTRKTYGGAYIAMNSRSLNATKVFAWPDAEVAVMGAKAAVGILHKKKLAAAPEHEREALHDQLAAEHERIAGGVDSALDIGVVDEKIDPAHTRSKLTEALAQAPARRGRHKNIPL

Mtb strain mc^2-7000 = experiment: microbe, parasite or virus in culture; format: cell-based, Mycobacterium tuberculosis; settings: 6 days incubation at 37° C., resazurin, read on the 7th day
[1] = Mycobacterium tuberculosis, 144 h, read-out: MIC

| Structure (SMILES) | concentrations at which not toxic, human fibroblast cytotoxicity (human fibroblast) [µM] | concentrations at which not toxic, s. cerevisiae cytotoxicity (S. cerevisiae) [µM] | IC50 (Mtb AccD6; read-out: IC50) [µM] | MIC (Mtb strain mc^2-7000; [1]) [µM] | inhibition at 20 µM (Mtb AccD6) [%] | MIC (Mtb strain mc^2-7000) | IC50 (Mtb AccD6) |
| --- | --- | --- | --- | --- | --- | --- | --- |
| CC(C)(Oc1ccc(Oc2cnc3cc(Cl)ccc3n2)cc1)C(=O)O [NZ-315, 2-{4-[(6-chloroquinoxalin-2-yl)oxy]phenoxy}-2-methylpropanoic acid] | ≥ 100 | ≥ 100 | 1.7 | 25 (≈ 8.97 µg/mL) |  |  |  |
| CC(C)(Oc1ccc(Oc2nc3ccc(Cl)cc3s2)cc1)C(=O)O [NZ-318, 2-{4-[(6-chloro-1,3-benzothiazol-2-yl)oxy]phenoxy}-2-methylpropanoic acid] | ≥ 100 | ≥ 100 | 1.5 | 12 (≈ 4.37 µg/mL) |  |  |  |
| CONC(=O)C(C)(C)Oc1ccc(Oc2nc3ccc(Cl)cc3s2)cc1 [NZ-319, 2-{4-[(6-chloro-1,3-benzothiazol-2-yl)oxy]phenoxy}-N-methoxy-2-methylpropanamide] | ≥ 100 | ≥ 100 | 20 | 6 (≈ 2.36 µg/mL) |  |  |  |
| CC(C)(C)OC(=O)Nc1ccc(Oc2cnc3cc(Cl)ccc3n2)cc1 [NZ-321, tert-butyl N-{4-[(6-chloroquinoxalin-2-yl)oxy]phenyl}carbamate] | ≥ 100 | ≥ 100 | 20 | 50 (≈ 18.6 µg/mL) |  |  |  |
| O=C(COc1ccc(Oc2cnc3cc(Cl)ccc3n2)cc1)NOCC1CC1 [NZ-323, 2-{4-[(6-chloroquinoxalin-2-yl)oxy]phenoxy}-N-(cyclopropylmethoxy)acetamide] | ≥ 100 | ≥ 100 | 3.6 | 6 (≈ 2.4 µg/mL) |  |  |  |
| CC(C)ONC(=O)COc1ccc(Oc2cnc3cc(Cl)ccc3n2)cc1 [NZ-326, 2-{4-[(6-chloroquinoxalin-2-yl)oxy]phenoxy}-N-(propan-2-yloxy)acetamide] | ≥ 100 | ≥ 100 | 2.5 to 4.4 | 3 (≈ 1.16 µg/mL) |  |  |  |
| CC(C)NC(=O)C(C)c1ccc(Oc2nc3ccc(Cl)cc3s2)cc1 (stereo not drawn) [NZ-327, 2-{4-[(6-chloro-1,3-benzothiazol-2-yl)oxy]phenyl}-N-(propan-2-yl)propanamide] | ≥ 100 | ≥ 100 | 0.3 | 12 (≈ 4.5 µg/mL) |  |  |  |
| COC(=O)C(C)c1ccc(Oc2nc3ccc(F)cc3s2)cc1 (stereo not drawn) [NZ-328, methyl 2-{4-[(6-fluoro-1,3-benzothiazol-2-yl)oxy]phenyl}propanoate] | ≥ 100 | ≥ 100 | 10 | 12 (≈ 3.98 µg/mL) |  |  |  |
| CC(C(=O)O)c1ccc(Oc2nc3ccc(F)cc3s2)cc1 (stereo not drawn) [NZ-329, 2-{4-[(6-fluoro-1,3-benzothiazol-2-yl)oxy]phenyl}propanoic acid] | ≥ 100 | ≥ 100 | 0.37 | 12 (≈ 3.81 µg/mL) |  |  |  |
| COc1ccc2nc(Oc3ccc(C(C)C(=O)O)cc3)sc2c1 (stereo not drawn) [NZ-334, 2-{4-[(6-methoxy-1,3-benzothiazol-2-yl)oxy]phenyl}propanoic acid] | ≥ 100 | ≥ 100 | 10 | 25 (≈ 8.23 µg/mL) |  |  |  |
| O=C(O)C(O)c1ccc(Oc2nc3ccc(Cl)cc3s2)cc1 (stereo not drawn) [NZ-337, 2-{4-[(6-chloro-1,3-benzothiazol-2-yl)oxy]phenyl}-2-hydroxyacetic acid] | ≥ 100 | ≥ 100 | 2.3 | 25 (≈ 8.39 µg/mL) |  |  |  |
| COc1ccc2nc(Oc3ccc(NC(=O)NC(C)C)cc3)sc2c1 [NZ-361, 1-{4-[(6-methoxy-1,3-benzothiazol-2-yl)oxy]phenyl}-3-(propan-2-yl)urea] | ≥ 100 | ≥ 100 |  | 3.2 (≈ 1.14 µg/mL) | 19 |  |  |
| CC(C)NC(=O)Nc1ccc(Oc2nc3ccc(O)cc3s2)cc1 [NZ-362, 1-{4-[(6-hydroxy-1,3-benzothiazol-2-yl)oxy]phenyl}-3-(propan-2-yl)urea] | ≥ 100 | ≥ 100 |  | 6.5 (≈ 2.23 µg/mL) | 20 |  |  |
| CC(C(=O)N1CCNCC1)c1ccc(Oc2nc3ccc(Cl)cc3s2)cc1 (stereo not drawn) [NZ-364, 2-{4-[(6-chloro-1,3-benzothiazol-2-yl)oxy]phenyl}-1-(piperazin-1-yl)propan-1-one] | ≥ 100 | ≥ 100 |  | 1.34 (≈ 0.539 µg/mL) | 20 |  |  |
| CC(C(=O)N1CCOCC1)c1ccc(Oc2nc3ccc(Cl)cc3s2)cc1 (stereo not drawn) [NZ-365, 2-{4-[(6-chloro-1,3-benzothiazol-2-yl)oxy]phenyl}-1-(morpholin-4-yl)propan-1-one] | ≥ 100 | 50 to 100 | 6.2 | 18.9 (≈ 7.61 µg/mL) |  |  |  |
| CC(C(=O)N1CCN(C)CC1)c1ccc(Oc2nc3ccc(Cl)cc3s2)cc1 (stereo not drawn) [NZ-366, 2-{4-[(6-chloro-1,3-benzothiazol-2-yl)oxy]phenyl}-1-(4-methylpiperazin-1-yl)propan-1-one] | 25 to 50 | 25 to 50 | 4.9 | 0.56 (≈ 0.233 µg/mL) |  |  |  |
| CC(C(=O)N(C)C)c1ccc(Oc2nc3ccc(Cl)cc3s2)cc1 (stereo not drawn) [NZ-368, 2-{4-[(6-chloro-1,3-benzothiazol-2-yl)oxy]phenyl}-N,N-dimethylpropanamide] | ≥ 100 | 25 to 50 | 3.6 | 2.07 (≈ 0.747 µg/mL) |  |  |  |
| CC(C(=O)NCCO)c1ccc(Oc2nc3ccc(Cl)cc3s2)cc1 (stereo not drawn) [NZ-370, 2-{4-[(6-chloro-1,3-benzothiazol-2-yl)oxy]phenyl}-N-(2-hydroxyethyl)propanamide] | ≥ 100 | ≥ 100 | 1 | 1.8 (≈ 0.678 µg/mL) |  |  |  |
| CC(C(=O)NC(CO)CO)c1ccc(Oc2nc3ccc(Cl)cc3s2)cc1 (stereo not drawn) [NZ-371, 2-{4-[(6-chloro-1,3-benzothiazol-2-yl)oxy]phenyl}-N-(1,3-dihydroxypropan-2-yl)propanamide] | ≥ 100 | ≥ 100 | 0.86 | 20 (≈ 8.13 µg/mL) |  |  |  |
| CC(C)NC(=O)Nc1ccc(Oc2nc3cc(F)ccc3s2)cc1 [NZ-373, 1-{4-[(5-fluoro-1,3-benzothiazol-2-yl)oxy]phenyl}-3-(propan-2-yl)urea] | ≥ 100 | ≥ 100 | 1.66 |  |  | Not Active |  |
| CC(C)NC(=O)Nc1ccc(Oc2nc3c(F)cccc3s2)cc1 [NZ-374, 1-{4-[(4-fluoro-1,3-benzothiazol-2-yl)oxy]phenyl}-3-(propan-2-yl)urea] | ≥ 100 | ≥ 100 |  |  |  | Not Active | Not Active |
| CC(C)NC(=O)Nc1ccc(Oc2nc3cc(Cl)ccc3s2)cc1 [NZ-376, 1-{4-[(5-chloro-1,3-benzothiazol-2-yl)oxy]phenyl}-3-(propan-2-yl)urea] | ≥ 100 | ≥ 100 | 0.874 |  |  | Not Active |  |
| CC(C)NC(=O)Nc1ccc(Oc2nc3ccc(C#N)cc3s2)cc1 [NZ-377, 1-{4-[(6-cyano-1,3-benzothiazol-2-yl)oxy]phenyl}-3-(propan-2-yl)urea] | ≥ 100 | ≥ 100 | 7.9 |  |  | Not Active |  |
| CCOC(=O)c1ccc2nc(Oc3ccc(NC(=O)NC(C)C)cc3)sc2c1 [NZ-378, ethyl 2-(4-{[(propan-2-yl)carbamoyl]amino}phenoxy)-1,3-benzothiazole-6-carboxylate] | ≥ 100 | ≥ 100 |  | 2.2 (≈ 0.879 µg/mL) |  |  | Not Active |
